Results: patent US20060069132A1, “Azolecarboxamide herbicides” (priority 2004, published 2006)

Experiments:
quackgrass = assay: Test E pre-/postemergence herbicide test; type: in vivo, Elytrigia repens
Text: (§1) Seeds of plant species selected from bipinnate beggarticks (Bidens bipinnata L.), hairy beggarticks (Bidens radiata Thuill.), bermudagrass (Cynodon dactylon (L.) Pers.), Surinam grass (Urochloa decumbens (Staph) R. D. Webster, previously named Brachiaria decumbens Stapf), large crabgrass (Digitaria sanguinalis (L.) Scop.), green foxtail (Setaria viridis (L.) P. Beauv.), goosegrass (Eleusine indica (L.) Gaertn.), johnsongrass (Sorghum halepense (L.) Pers.), kochia (Kochia scoparia (L.) Schrad.), pitted morningglory (Ipomoea lacunosa L.), purple nutsedge (Cyperus rotundus L.), common ragweed (Ambrosia elatior L.), mustard (Brassica nigra (L.) W. D. J. Koch), guineagrass (Panicum maximum Jacq.), dallisgrass (Paspalum dilatatum Poir.), barnyardgrass (Echinochloa crus-galli (L). P. Beauv.), southern sandbur (Cenchrus echinatus L.), common sowthistle (Sonchus oleraceous L.), prickly sida (Sida spinosa L.), Italian ryegrass (Lolium multiflorum Lam.), common purslane (Portulaca oleracea L.), broadleaf signalgrass (Brachiaria platyphylla (Griseb.) Nash), common groundsel (Senecio vulgaris L.), common chickweed (Stellaria media (L.) Vill/Cyr.), tropical spiderwort (Commelina benghalensis L.), annual bluegrass (Poa annua L.), downy bromegrass (Bromus tectorum L.), itchgrass (Rottboellia cochinchinensis (L.) L.f.), quackgrass (Elytrigia repens (L.) Nevski), Canada horseweed (Erigeron Canadensis L.), field bindweed (Convolvulus arvensis L.), spotted spurge (Euphorbia maculata L.), common mallow (Malva sylvestris (=s silvestris) L.), and Russian thistle (Salsola kali L. ssp. Ruthenica (Iljin) Soo) were planted and treated preemergence with test chemicals formulated in a non-phytotoxic solvent mixture which included a surfactant.
(§2) At the same time, plants selected from these weed species were treated with postemergence applications of some of the test chemicals formulated in the same manner. Plants ranged in height from 2 to 18 cm (1- to 4-leaf stage) for postemergence treatments. Treated plants and controls were maintained in a greenhouse for 12 to 14 days, after which time all species were compared to controls and visually evaluated. Plant response ratings, summarized in Table E, are based on a scale of 0 to 100 where 0 is no effect and 100 is complete control. A dash (-) response means no test result.

green foxtail [1] = assay: Test E pre-/postemergence herbicide test; type: in vivo, Setaria viridis
Text: as §1, §2

common sowthistle = assay: Test E pre-/postemergence herbicide test; type: in vivo, Sonchus oleraceous
Text: as §1, §2

common mallow = assay: Test E pre-/postemergence herbicide test; type: in vivo, Malva sylvestris
Text: as §1, §2

downy bromegrass [2] = assay: Test E pre-/postemergence herbicide test; type: in vivo, Bromus tectorum
Text: as §1, §2

johnsongrass = assay: Test E pre-/postemergence herbicide test; type: in vivo, Sorghum halepense
Text: as §1, §2

dallisgrass = assay: Test E pre-/postemergence herbicide test; type: in vivo, Paspalum dilatatum
Text: as §1, §2

Surinam grass = assay: Test E pre-/postemergence herbicide test; type: in vivo, Urochloa decumbens
Text: as §1, §2

common chickweed = assay: Test E pre-/postemergence herbicide test; type: in vivo, Stellaria media
Text: as §1, §2

Italian ryegrass = assay: Test C postemergence herbicide test; type: in vivo, Lolium multiflorum
Method in brief: (§3)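 Plants were grown to the 1- to 4-leaf stage (2–18 cm) and then treated postemergence, or grown to the 2-leaf stage for the flooded paddy test. They were held in a greenhouse for 12 to 14 days and then scored by eye against controls, where 0 is no effect and 100 is complete control.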

downy bromegrass [3] = assay: Test C postemergence herbicide test; type: in vivo, Bromus tectorum
Method in brief: as §3

windgrass = assay: Test C postemergence herbicide test; type: in vivo, Apera spica-venti
Method in brief: as §3

wild oat = assay: Test C postemergence herbicide test; type: in vivo, Avenafatua
Method in brief: as §3

green foxtail [4] = assay: Test C postemergence herbicide test; type: in vivo, Setaria viridis
Method in brief: as §3

[5] = Postemergence, 500 g ai/ha, scale 0 to 100
[6] = Postemergence, 250 g ai/ha, scale 0 to 100
[7] = Preemergence, 62 g ai/ha, scale 0 to 100
[8] = Preemergence, 125 g ai/ha, scale 0 to 100
[9] = Preemergence, 250 g ai/ha, scale 0 (no effect) to 100 (complete control)
[10] = Preemergence, 500 g ai/ha, scale 0 (no effect) to 100 (complete control)
[11] = postemergence, 125 g ai/ha, scale 0 to 100
[12] = postemergence, 62 g ai/ha, scale 0 to 100
[13] = Postemergence, 250 g ai/ha, scale 0 to 100, 0 no effect, 100 complete control

## CCn1nc(C(C)(C)C)cc1C(=O)Nc1cc(C(=O)N(C)C)ccn1 [Compound 156, 2-[[[3-(1,1-dimethylethyl)-1-ethyl-1H-pyrazol-5-yl]carbonyl]amino]-N,N-dimethyl-4-pyridinecarboxamide]
quackgrass; [5]
  Plant response rating, Quackgrass: 98
quackgrass; [6]
  Plant response rating, Quackgrass: 95
quackgrass; [7]
  Plant response rating, Quackgrass: 50
quackgrass; [8]
  Plant response rating, Quackgrass: 90
quackgrass; [9]
  Plant response rating, Quackgrass: 95
quackgrass; [10]
  Plant response rating, Quackgrass: 100
quackgrass; [11]
  Plant response rating, Quackgrass: 95
quackgrass; [12]
  Plant response rating, Quackgrass: 75
Green foxtail [1]; [5]
  Plant response rating, Foxtail, Green: 100
Green foxtail [1]; [6]
  Plant response rating, Foxtail, Green: 100
Green foxtail [1]; [7]
  Plant response rating, Foxtail, Green: 100
Green foxtail [1]; [8]
  Plant response rating, Foxtail, Green: 100
Green foxtail [1]; [9]
  Plant response rating, Foxtail, Green: 100
Green foxtail [1]; [10]
  Plant response rating, Foxtail, Green: 100
Green foxtail [1]; [11]
  Plant response rating, Foxtail, Green: 95
Green foxtail [1]; [12]
  Plant response rating, Foxtail, Green: 75
Common sowthistle; [5]
  Plant response rating, Sowthistle: 100
Common sowthistle; [6]
  Plant response rating, Sowthistle: 100
Common sowthistle; [7]
  Plant response rating, Sowthistle: 60
Common sowthistle; [8]
  Plant response rating, Sowthistle: 100
Common sowthistle; [9]
  Plant response rating, Sowthistle: 100
Common sowthistle; [10]
  Plant response rating, Sowthistle: 100
Common sowthistle; [11]
  Plant response rating, Sowthistle: 90
Common sowthistle; [12]
  Plant response rating, Sowthistle: 90
Common mallow; [5]
  Plant response rating, Mallow: 100
Common mallow; [6]
  Plant response rating, Mallow: 95
Common mallow; [7]
  Plant response rating, Mallow: 70
Common mallow; [8]
  Plant response rating, Mallow: 100
Common mallow; [9]
  Plant response rating, Mallow: 100
Common mallow; [10]
  Plant response rating, Mallow: 100
Common mallow; [11]
  Plant response rating, Mallow: 90
Common mallow; [12]
  Plant response rating, Mallow: 80
Downy bromegrass [2]; [5]
  Plant response rating, Bromegrass, Downy: 100
Downy bromegrass [2]; [6]
  Plant response rating, Bromegrass, Downy: 100
Downy bromegrass [2]; [7]
  Plant response rating, Bromegrass, Downy: 60
Downy bromegrass [2]; [8]
  Plant response rating, Bromegrass, Downy: 80
Downy bromegrass [2]; [9]
  Plant response rating, Bromegrass, Downy: 100
Downy bromegrass [2]; [10]
  Plant response rating, Bromegrass, Downy: 100
Downy bromegrass [2]; [11]
  Plant response rating, Bromegrass, Downy: 100
Downy bromegrass [2]; [12]
  Plant response rating, Bromegrass, Downy: 90
johnsongrass; [5]
  Plant response rating, Johnsongrass: 100
johnsongrass; [6]
  Plant response rating, Johnsongrass: 100
johnsongrass; [7]
  Plant response rating, Johnsongrass: 95
johnsongrass; [8]
  Plant response rating, Johnsongrass: 100
johnsongrass; [9]
  Plant response rating, Johnsongrass: 100
johnsongrass; [10]
  Plant response rating, Johnsongrass: 100
johnsongrass; [11]
  Plant response rating, Johnsongrass: 95
johnsongrass; [12]
  Plant response rating, Johnsongrass: 85
dallisgrass; [5]
  Plant response rating, Dallisgrass: 90
dallisgrass; [6]
  Plant response rating, Dallisgrass: 90
dallisgrass; [7]
  Plant response rating, Dallisgrass: 90
dallisgrass; [8]
  Plant response rating, Dallisgrass: 95
dallisgrass; [9]
  Plant response rating, Dallisgrass: 100
dallisgrass; [10]
  Plant response rating, Dallisgrass: 100
dallisgrass; [11]
  Plant response rating, Dallisgrass: 85
dallisgrass; [12]
  Plant response rating, Dallisgrass: 75
Surinam grass; [5]
  Plant response rating, Surinam Grass: 100
Surinam grass; [6]
  Plant response rating, Surinam Grass: 98
Surinam grass; [7]
  Plant response rating, Surinam Grass: 50
Surinam grass; [8]
  Plant response rating, Surinam Grass: 75
Surinam grass; [10]
  Plant response rating, Surinam Grass: 95
Surinam grass; [11]
  Plant response rating, Surinam Grass: 95
Surinam grass; [12]
  Plant response rating, Surinam Grass: 80
Common chickweed; [5]
  Plant response rating, Chickweed: 100
Common chickweed; [6]
  Plant response rating, Chickweed: 100
Common chickweed; [7]
  Plant response rating, Chickweed: 80
Common chickweed; [8]
  Plant response rating, Chickweed: 100
Common chickweed; [9]
  Plant response rating, Chickweed: 100
Common chickweed; [10]
  Plant response rating, Chickweed: 100
Common chickweed; [11]
  Plant response rating, Chickweed: 100
Common chickweed; [12]
  Plant response rating, Chickweed: 100

## CCN1N=C(C(C)(C)C)CC1C(=O)Nc1cc(C(=O)N(C)C)ccc1F (centres unmarked) [Compound 268, N-[5-[(dimethylamino)carbonyl]-2-fluorophenyl]-3-(1,1-dimethylethyl)-1-ethyl-4,5-dihydro-1H-pyrazole-5-carboxamide]
Italian ryegrass; [13]
  Plant response rating, Ryegrass, Italian: 40
Italian ryegrass; [11]
  Plant response rating, Ryegrass, Italian: 30
Italian ryegrass; [12]
  Plant response rating, Ryegrass, Italian: 10
quackgrass; [7]
  Plant response rating, Quackgrass: 40
quackgrass; [8]
  Plant response rating, Quackgrass: 85
quackgrass; [9]
  Plant response rating, Quackgrass: 95
quackgrass; [10]
  Plant response rating, Quackgrass: 95
Downy bromegrass [3]; [13]
  Plant response rating, Bromegrass, Downy: 40
Downy bromegrass [3]; [11]
  Plant response rating, Bromegrass, Downy: 30
Downy bromegrass [3]; postemergence, 31 g ai/ha, scale 0 to 100
  Plant response rating, Bromegrass, Downy: 0
Downy bromegrass [3]; [12]
  Plant response rating, Bromegrass, Downy: 10
Green foxtail [1]; [7]
  Plant response rating, Foxtail, Green: 70
Green foxtail [1]; [8]
  Plant response rating, Foxtail, Green: 95
Green foxtail [1]; [9]
  Plant response rating, Foxtail, Green: 100
Green foxtail [1]; [10]
  Plant response rating, Foxtail, Green: 100
windgrass; [13]
  Plant response rating, Windgrass: 100
windgrass; [11]
  Plant response rating, Windgrass: 60
windgrass; [12]
  Plant response rating, Windgrass: 30
Common sowthistle; [7]
  Plant response rating, Sowthistle: 80
Common sowthistle; [8]
  Plant response rating, Sowthistle: 100
Common sowthistle; [9]
  Plant response rating, Sowthistle: 100
Common sowthistle; [10]
  Plant response rating, Sowthistle: 100
Common mallow; [7]
  Plant response rating, Mallow: 50
Common mallow; [8]
  Plant response rating, Mallow: 50
Common mallow; [9]
  Plant response rating, Mallow: 80
Common mallow; [10]
  Plant response rating, Mallow: 90
Wild oat; [13]
  Plant response rating, Oat, Wild: 65
Wild oat; [11]
  Plant response rating, Oat, Wild: 35
Wild oat; [12]
  Plant response rating, Oat, Wild: 20
Downy bromegrass [2]; [8]
  Plant response rating, Bromegrass, Downy: 80
Downy bromegrass [2]; [9]
  Plant response rating, Bromegrass, Downy: 80
Downy bromegrass [2]; [10]
  Plant response rating, Bromegrass, Downy: 100
johnsongrass; [7]
  Plant response rating, Johnsongrass: 30
johnsongrass; [8]
  Plant response rating, Johnsongrass: 50
johnsongrass; [9]
  Plant response rating, Johnsongrass: 50
johnsongrass; [10]
  Plant response rating, Johnsongrass: 80
dallisgrass; [7]
  Plant response rating, Dallisgrass: 70
dallisgrass; [8]
  Plant response rating, Dallisgrass: 80
dallisgrass; [9]
  Plant response rating, Dallisgrass: 85
dallisgrass; [10]
  Plant response rating, Dallisgrass: 85
Surinam grass; [8]
  Plant response rating, Surinam Grass: 90
Surinam grass; [10]
  Plant response rating, Surinam Grass: 100
Green foxtail [4]; [13]
  Plant response rating, Foxtail, Green: 50
Green foxtail [4]; [11]
  Plant response rating, Foxtail, Green: 45
Green foxtail [4]; [12]
  Plant response rating, Foxtail, Green: 40
